# Test results taken from patent US12023323B2, “Carbohydrate-binding small molecules with antiviral activity” (priority 2018, dated 2024).
# Entries after “also recorded” stand apart in the source; their conditions may differ. Counter-ions that a name gives are not always drawn. Like-named read-outs stand apart in the source and are kept apart here.
# Experiments:
# [1] = system: HeLa cells; test: Cellular toxicity, CellTiter-Glo, HeLa cells; conditions: read-out: TC50, Table 2, 72 h
# [2] = system: Vero cells; test: Cellular toxicity, CellTiter-Glo, Vero cells; conditions: for CC50: read-out: TC50, Table 1, 72 h, CellTiter-Glo
# [3] = 1H NMR titration with octyloxy pyranoside β-Man; assay type: binding; parameters: key to Ka (M^−1) with β-Man: No detectable binding; conditions: for Ka (M^−1) with β-Man: NMR titrations in CD2Cl2 at 298 K
# [4] = 1H NMR titration with octyloxy pyranoside α-Man; assay type: binding; parameters: key to Ka (M^−1) with α-Man: No detectable binding; conditions: for Ka (M^−1) with α-Man: NMR titrations in CD2Cl2 at 298 K; for affinity for α-Man relative to SCR001: fold / ratio SCR:SCR001
# [5] = Selectivity across the five octyloxy pyranosides from NMR titrations; assay type: binding; conditions: for binding profile across the glycans in words / glycan preference in words: five octyloxy pyranosides, CD2Cl2, 298 K; for affinity for β-Glc over α-Man: times
# [6] = system: ZIKV GFP RVPs
# [7] = 1H NMR titration with octyloxy pyranoside α-Glc; assay type: binding; conditions: NMR titrations
# [8] = Cellular toxicity, CellTiter-Glo, Vero cells; conditions: African green monkey
# [9] = 1H NMR titration with octyloxy pyranoside β-Gal; assay type: binding; conditions: NMR titrations
# [10] = 1H NMR titration with octyloxy pyranoside β-Glc; assay type: binding; conditions: for K1 (1:1 association constant) with β-Glc: CD2Cl2, 298 K; for affinity for β-Glc relative to SCR001: fold / ratio SCR:SCR001
# [11] = system: ZIKV GFP RVPs; test: microbe, parasite or virus in culture; conditions: Zika virus, Vero
# [12] = system: ZIKV RVPs; test: microbe, parasite or virus in culture; assay type: cell-based, Zika virus; conditions: for IC50: Zika virus, HeLa
# [13] = system: HIV-1; conditions: cell culture; cited from earlier work
# [14] = Table 3, Vero cells, ZIKV RVPs, average of at least two independent measurements
# [15] = Table 3 study, Vero cells, ZIKV RVPs, unit μm [sic]
# [16] = read-out: IC50 (strong antiviral activity), Vero cells, ZIKV RVPs
# [17] = Table 1, Vero cells, compounds 30 min before ZIKV RVPs, GFP+ cells 72 h postinfection
smiles,measurement,setting,value
c1c[nH]c(CNCc2cc(CNCc3ccc[nH]3)cc(-c3cc(CNCc4ccc[nH]4)cc(Cn4cc(COCCOCCOCCOCc5cn(Cc6cc(CNCc7ccc[nH]7)cc(-c7cc(CNCc8ccc[nH]8)cc(CNCc8ccc[nH]8)c7)c6)nn5)nn4)c3)c2)c1 [SCR012],CC50,[1],2.48 µM
same,CC50,[2],36.2 µM
same,Ka (M^−1) with β-Man,[3]; 1:1 binding,1700 M⁻¹
same,Ka (M^−1) with α-Man,[4]; 1:1 binding,2600 M⁻¹
same,binding profile across the glycans in words,[5],promiscuous; also recorded: bind all five glycans
"O=C(NCc1cc(CNC(=O)c2cccs2)cc(-c2cc(CNC(=O)c3cccs3)cc(CNC(=O)c3cccs3)c2)c1)c1cccs1 [SCR008, N,N,N′,N″-([1,1′-biphenyl]-3,3′,5,5′-tetrayltetrakis(methylene))tetrakis(thiophene-2-carboxamide)]",IC50,[6],> 100 µM
same,anti-ZIKV activity in words,[6],not effective
"Oc1ccccc1CNCc1cc(CNCc2ccccc2O)cc(-c2cc(CNCc3ccccc3O)cc(CNCc3ccccc3O)c2)c1 [SCR022, 2,2′,2″,2′″-((([1,1′-biphenyl]-3,3′,5,5′-tetrayltetrakis(methylene))tetrakis(azanediyl))tetrakis(methylene))tetraphenol]",therapeutic index (TC50/IC50),"[6]; Table 3, Vero cells",2
same,anti-ZIKV activity in words,"[6]; Vero cells, ZIKV RVPs",potent anti-ZIKV activity
same,binding to α-Glc in words,[7],no substantial binding
same,CC50 at 72 h,[8],4.6 ± 1.1 µM
same,cellular toxicity in words,[2],toxic to Vero cells
same,binding to β-Gal in words,[9],no substantial binding
same,K2 (2:1 SCR·glycan association constant) with β-Glc,[10]; 2:1 SCR·glycan complexes,690 M⁻¹
same,cumulative association constant β with β-Glc,[10]; 2:1 SCR·glycan complexes,8.1×10^4 M^−2
same,K1 (1:1 association constant) with β-Glc,[10],120 M⁻¹
same,affinity for β-Glc relative to SCR001,[10],62
same,Ka (M^−1) with α-Man,[4]; 1:1 binding,280 M⁻¹
same,glycan preference in words,[5],prefer β-Glc
same,affinity for β-Glc over α-Man,[5],290
same,IC50,[11]; [14],2.5 ± 0.6 µM
same,IC50,[11]; [15],< 5 µM
same,IC50,[11]; [16],< 5 µM
"c1ccc2[nH]c(CNCc3cc(CNCc4cc5ccccc5[nH]4)cc(-c4cc(CNCc5cc6ccccc6[nH]5)cc(CNCc5cc6ccccc6[nH]5)c4)c3)cc2c1 [SCR018, 1,1′,1″,1′″-([1,1′-biphenyl]-3,3′,5,5′-tetrayl)tetrakis(N-((1H-indol-2-yl)methyl)methanamine)]",therapeutic index (TC50/IC50),"[6]; Table 3, Vero cells",2
same,anti-ZIKV activity in words,"[6]; Vero cells, ZIKV RVPs",weaker inhibition
same,CC50 at 72 h,[8],29.8 ± 5 µM
same,binding to β-Glc in words,[10]; NMR peak shifting upon mixing,no substantial binding
same,"fold selectivity for α-Man, SCR019 compared to SCR018",[4]; 2-indole vs 3-indole,36
same,Ka (M^−1) with α-Man,[4]; 1:1 binding,11000 M⁻¹
same,affinity for α-Man relative to SCR001,[4],10
same,glycan preference in words,[5],uniquely bind α-Man; also recorded: specific for α-Man
"c1coc(CNCc2cc(CNCc3ccco3)cc(-c3cc(CNCc4ccco4)cc(CNCc4ccco4)c3)c2)c1 [SCR002, 1,1′,1″,1′″-([1,1′-biphenyl]-3,3′,5,5′-tetrayl)tetrakis(N-(furan-2-ylmethyl)methanamine)]",anti-ZIKV activity in words,"[6]; Vero cells, ZIKV RVPs",less potent
same,CC50,[1],2.51 µM
same,CC50,[2],5.43 µM
same,Ka (M^−1) with β-Man,[3]; 1:1 binding,54 M⁻¹
same,Ka (M^−1) with α-Man,[4]; 1:1 binding,1400 M⁻¹
same,binding profile across the glycans in words,[5],"measurable binding with only β-Glc, β-Man and α-Man; also recorded: binds only β-Glc, β-Man, and α-Man"
same,glycan preference in words,[5],preference for α-Man; also recorded: selective for α-Man
same,IC50,[11]; [17],1.13 ± 0.23 µM
same,anti-ZIKV activity in words,"[12]; HeLa cells, ZIKV RVPs",more potent than SCR001
same,IC50,[12],0.35 ± 0.09 µM
"c1ccc(CNCc2cc(CNCc3ccccn3)cc(-c3cc(CNCc4ccccn4)cc(CNCc4ccccn4)c3)c2)nc1 [SCR020, 1,1′,1″,1′″-([1,1′-biphenyl]-3,3′,5,5′-tetrayl)tetrakis(N-(pyridin-2-ylmethyl)methanamine)]",therapeutic index (TC50/IC50),"[6]; Table 3, Vero cells",9
same,IC50,[6]; [14],19.9 ± 14.4 µM
same,anti-ZIKV activity in words,"[6]; Vero cells, ZIKV RVPs",weaker inhibition
same,CC50 at 72 h,[8],178 ± 99 µM
same,K2 (1:2 SCR·glycan association constant) with α-Man,[4]; 1:2 SCR·glycan binding model,11 M⁻¹
same,cumulative association constant β with α-Man,[4]; 1:2 SCR·glycan binding model,2.8×10^5 M^−2
same,cumulative association constant β with α-Man,"[4]; 1:2 SCR·glycan, unit M^2",2.8×10^5 M^2
same,K1 (1:1 association constant) with α-Man,"[4]; CD2Cl2, 298 K",260 M⁻¹
same,affinity for α-Man relative to SCR001,[4],200
same,"change in affinity for α-Man, SCR020 and SCR021",[4]; times,570
same,glycan preference in words,[5],uniquely bind α-Man; also recorded: specific for α-Man
same,IC50,[11]; [14],< 20 µM
"c1csc(CNCc2cc(CNCc3cccs3)cc(-c3cc(CNCc4cccs4)cc(CNCc4cccs4)c3)c2)c1 [SCR003, 1,1′,1″,1′″-([1,1′-biphenyl]-3,3′,5,5′-tetrayl)tetrakis(N-(thiophen-2-ylmethyl)methanamine)]",anti-ZIKV activity in words,"[6]; Vero cells, ZIKV RVPs",less potent
same,CC50,[1],2.47 µM
same,CC50,[2],4.12 µM
same,Ka (M^−1) with β-Man,[3],c
same,Ka (M^−1) with β-Man,[3]; 1:1 binding,< 30 M⁻¹
same,Ka (M^−1) with α-Man,[4],c
same,binding profile across the glycans in words,[5],"only had measurable binding with β-Glc, and α-Man; also recorded: binds only β-Glc and α-Man"
same,glycan preference in words,[5],preference for α-Man; also recorded: selective for α-Man
same,IC50,[11]; [17],1.31 µM
same,IC50,[12],0.56 ± 0.08 µM
"NCc1cc(CN)cc(-c2cc(CN)cc(CN)c2)c1 [Compound 2, [1,1′-biphenyl]-3,3′,5,5′-tetrayltetramethanamine tetrahydrochloride]",IC50,[11]; [17],> 100 µM
CN[C@@H]1[C@H](O[C@@H]2OC[C@@H](O)[C@H](O)[C@H]2O)[C@@H](O)[C@H](O[C@H]2c3cc(C)c(C(=O)N[C@H](C)C(=O)O)c(O)c3-c3c(cc4c(c3O)C(=O)c3cc(OC)cc(O)c3C4=O)[C@@H]2O)O[C@@H]1C [pradimicin A],50% effective concentration against HIV-1,[13],micromolar concentration range
COc1cc(O)c2c(c1)C(=O)c1c(cc3c(c1O)-c1c(cc(C)c(C(=O)N[C@H](C)C(=O)O)c1O)[C@H](O[C@@H]1O[C@H](C)[C@H](O)[C@H](O[C@@H]4OC[C@@H](O)[C@H](O)[C@H]4O)[C@H]1O)[C@H]3O)C2=O [benanomicin A],50% effective concentration against HIV-1,[13],micromolar concentration range
"c1cc(CNCc2cc(CNCc3cc[nH]c3)cc(-c3cc(CNCc4cc[nH]c4)cc(CNCc4cc[nH]c4)c3)c2)c[nH]1 [SCR017, 1,1′,1″,1′″-([1,1′-biphenyl]-3,3′,5,5′-tetrayl)tetrakis(N-((1H-pyrrol-3-yl)methyl)methanamine)]",IC50 relative to regioisomer,"[6]; SCR023 vs SCR022, SCR017 vs SCR001",four times higher
same,therapeutic index (TC50/IC50),"[6]; Table 3, Vero cells",66
same,anti-ZIKV activity in words,"[6]; Vero cells, ZIKV RVPs",potent anti-ZIKV activity
same,CC50 at 72 h,[8],316 ± 18 µM
same,K2 (1:2 SCR·glycan association constant) with β-Glc,[10]; 1:2 SCR·glycan complexes,6800 M⁻¹
same,cumulative association constant β with β-Glc,[10]; 1:2 SCR·glycan complexes,8.4×10^1 M^−2
same,cumulative association constant β with β-Glc,"[10]; 1:2 SCR·glycan, unit M^2",8.4×10^1 M^2
same,K1 (1:1 association constant) with β-Glc,[10],1.2 M⁻¹
same,affinity for β-Glc relative to SCR001,[10],7
same,glycan preference in words,[5],prefers β-Glc; also recorded: specific for β-Glc
same,IC50,[11]; [14],4.8 ± 0.4 µM
same,IC50,[11]; [15],< 5 µM
same,IC50,[11]; [16],< 5 µM
"c1ccc2c(CNCc3cc(CNCc4c[nH]c5ccccc45)cc(-c4cc(CNCc5c[nH]c6ccccc56)cc(CNCc5c[nH]c6ccccc56)c4)c3)c[nH]c2c1 [SCR019, 1,1′,1″,1′″-([1,1′-biphenyl]-3,3′,5,5′-tetrayl)tetrakis(N-((1H-indol-3-yl)methyl)methanamine)]",therapeutic index (TC50/IC50),"[6]; Table 3, Vero cells",153
same,binding to α-Glc in words,[7],no substantial binding
same,CC50 at 72 h,[8],39.8 ± 1.7 µM
same,cellular toxicity in words,[2],minimal cellular toxicity; also recorded: low off-site toxicity
same,cumulative association constant β=K1×K2 with β-Man,[3]; 1:2 SCR·glycan binding model,7.4×10^4 M^−2
same,cumulative association constant β with β-Man,"[3]; 1:2 SCR·glycan, unit M^2",7.4×10^4 M^2
same,K1 (1:1 association constant) with β-Man,"[3]; CD2Cl2, 298 K",2.3 M⁻¹
same,K2 (1:2 SCR·glycan association constant) with β-Man,"[3]; CD2Cl2, 298 K, 1:2 SCR·glycan binding model",32000 M⁻¹
same,affinity for β-Man relative to SCR001,[3]; SCR019:SCR001,2
same,Ka (M^−1) with α-Man,[4]; 1:1 binding,290 M⁻¹
same,glycan preference in words,[5],prefers β-Man; also recorded: selective for Mannosides with a preference for the β-anomer
same,affinity for β-Man over α-Man,[5]; fold,250
same,IC50,[11]; [14],0.26 µM
same,IC50,[11]; [16],< 5 µM
"c1cncc(CNCc2cc(CNCc3cccnc3)cc(-c3cc(CNCc4cccnc4)cc(CNCc4cccnc4)c3)c2)c1 [SCR021, 1,1′,1″,1′″-([1,1′-biphenyl]-3,3′,5,5′-tetrayl)tetrakis(N-(pyridin-3-ylmethyl)methanamine)]",binding to α-Glc in words,[7],no substantial binding
same,binding to β-Gal in words,[9],no substantial binding
same,K2 (1:2 SCR·glycan association constant) with β-Glc,[10]; 1:2 SCR·glycan complexes,12000 M⁻¹
same,cumulative association constant β with β-Glc,[10]; 1:2 SCR·glycan complexes,3.3×10^4 M^−2
same,K1 (1:1 association constant) with β-Glc,[10],2.7 M⁻¹
same,affinity for β-Glc relative to SCR001,[10],25
same,Ka (M^−1) with α-Man,[4]; 1:1 binding,490 M⁻¹
same,glycan preference in words,[5],prefer β-Glc
same,affinity for β-Glc over α-Man,[5],67
same,IC50,[11]; [14],> 100 µM
same,IC50,[11]; [15],> 100 µM
